Here are results for ten compounds from patent publication US4623649A, “Substituted β-carbolines, and use thereof as medicinal agents” (Schering Aktiengesellschaft, priority 1983, dated 1986).

The target in experiment [1] is benzodiazepine receptors. Briefly: in vitro displacement of 3H flunitrazepam (or 3H diazepam) from benzodiazepine receptors, rat cerebrum suspension. The class given is binding. The conditions noted are these: rat cerebral membrane suspension, 3H flunitrazepam 1.0 nM, 0° C., pH 7.1.
The test system of the next experiment is benzodiazepine receptor. Briefly: in vivo reduction of specific binding of 3H flunitrazepam to the benzodiazepine receptor in living brain, mice. More on the design: unit not given beside the values. The conditions noted are these: normally subcutaneous, 3H flunitrazepam i.v. after 15 minutes, sacrificed after another 20 minutes.
Experiment [2] addresses benzodiazepine receptors. The conditions noted are these: footnote * Nature 294(1981)472; cited from earlier work.

In the case of `CCOC(=O)c1ncc2[nH]c3ccc(C4=CCCCCCC4)cc3c2c1C`, the “IC50, displacement of specific binding of 3H flunitrazepam (in vitro)” value at benzodiazepine receptors [1] came out at 19 ng/mL. On the same count and under the same terms, the same measure for `CCOC(=O)c1ncc2[nH]c3ccc(C4CCCCC4)cc3c2c1C`: 12 ng/mL; for `CCOC(=O)c1ncc2[nH]c3ccc(CCc4ccccc4)cc3c2c1C` [CO2 Et, Me, H, CH2CH2C6 H5, 6-phenethyl-4-methyl-β-carboline-3-carboxylic acid ethyl ester]: 14 ng/mL.

Take `CCOC(=O)c1cc2c(cn1)[nH]c1ccc(C(C)C)cc12`: the “IC50, displacement of specific binding of 3H flunitrazepam (in vitro)” value on benzodiazepine receptors [1] is 0.9 ng/mL. With “6-(1- and 2-cyclohexen-4-yl)-4-methoxymethyl-3-(3-ethyl-1,2,4-oxadiazol-5-yl)-β-carboline”, at benzodiazepine receptors [1], the “IC50, displacement of specific binding of 3H flunitrazepam (in vitro)” value is 1.5 ng/mL. The “ED50, reduction of specific binding of flunitrazepam to 50% of control (in vivo)” value in the experiment with benzodiazepine receptor is recorded as 1.9. For “4-methoxymethyl-6-(1- and 2-cyclohexen-4-yl)-β-carboline-3-carboxylic acid ethyl ester”, the “IC50, displacement of specific binding of 3H flunitrazepam (in vitro)” value on benzodiazepine receptors [1] was found to be 0.7 ng/mL. Besides, the “ED50, reduction of specific binding of flunitrazepam to 50% of control (in vivo)” value in the experiment on benzodiazepine receptor stood at 0.5. Regarding `CCOC(=O)c1ncc2[nH]c3ccc(C4CCCC(=O)C4)cc3c2c1C` (stereo not drawn), the “IC50, displacement of specific binding of 3H flunitrazepam (in vitro)” value on benzodiazepine receptors [1] turned out to be 0.6 ng/mL.

As to `CCOC(=O)c1ncc2[nH]c3ccc(C(C)(C)C)cc3c2c1C` [CO2 Et, Me, H, C(CH3)3, 6-tert-butyl-4-methyl-β-carboline-3-carboxylic acid ethyl ester], the “IC50, displacement of specific binding of 3H flunitrazepam (in vitro)” value on benzodiazepine receptors [1] came to 7.5 ng/mL.

For `COC(=O)c1cc2c(cn1)[nH]c1ccccc12` [CO2 Me, H, H, H], the “IC50, displacement of specific binding of 3H flunitrazepam (in vitro), entry footnoted Nature 294(1981)472” value at benzodiazepine receptors [2] was 1.9 ng/mL. `CCOC(=O)c1ncc2[nH]c3cccc(Cc4ccccc4)c3c2c1COC` [CO2 Et, CH2 OCH3, CH2C6 H5, H, 5-benzyl-4-methoxymethyl-β-carboline-3-carboxylic acid ethyl ester]: the “IC50, displacement of specific binding of 3H flunitrazepam (in vitro)” value on benzodiazepine receptors [1] amounted to 0.5 ng/mL.
